EC50 data for 11 compounds are collected here from patent US11053243B2 (Merck Sharp & Dohme Corp., priority 2009, dated 2021).

Structures are written as SMILES. pEC50: −log10 of the molar value.

One experiment concerns HCV genotype 1b replicon. The experiment can be described thus: HCV replicon assay, genotype 1b. It counts as cell-based, hepatitis C virus. The settings on record: Hepatitis C virus; genotype 1b replicon cells, 24 to 72 hours incubation, luciferase activity. As to the method: The HCV replicons and NS5A inhibitory activity of the present compounds may be tested using assays known in the art. HCV inhibitors, such as those described in the Examples herein have activities in genotype 1b, 2a and 1a replicon assays of from about 1 pM to about 1 μM. The assay is performed by incubating a replicon harboring cell-line in the presence of inhibitor for a set period of time and measuring the effect of the inhibitor on HCV replicon replication either directly by quantifying replicon RNA level, or indirectly by measuring enzymatic activity of a co-encoded reporter enzyme such as luciferase or β-lactamase. By performing a series of such measurements at different inhibitor concentrations, the effective inhibitory concentration of the inhibitor (EC50 or EC90) is determined. See Jan M. Vrolijk et al., A replicons-based bioassay for the measurement of interferons in patients with chronic hepatitis C, 110 J. VIROLOGICAL METHODS 201 (2003). Such assays may also be run in an automated format for high through-put screening. See Paul Zuck et al., A cell-based β-lactamase reporter gene assay for the identification of inhibitors of hepatitis C virus replication, 334 ANALYTICAL BIOCHEMISTRY 344 (2004).
Measurement of inhibition by compounds was performed using the HCV replicon system. Several different replicons encoding different HCV genotypes or mutations were used. In addition, potency measurements were made using different formats of the replicon assay, including different ways of measurements and different plating formats. See Jan M. Vrolijk et al., A replicons-based bioassay for the measurement of interferons in patients with chronic hepatitis C, 110 J. VIROLOGICAL METHODS 201 (2003); Steven S. Carroll et al., Inhibition of Hepatitis C Virus RNA Replication by 2′-Modified Nucleoside Analogs, 278(14) J. BIOLOGICAL CHEMISTRY 11979 (2003). However, the underlying principles are common to all of these determinations, and are outlined below.
Stable neomycin phosphotransferase encoding replicon-harboring cell lines were used, so all cell lines were maintained under G418 selection prior to the assay. In some cases, the cell lines encoded a luciferase:Neor fusion and could be assayed either directly by determination of RNA copy number, or indirectly through measurement of the luciferase activity.
To initiate an assay, replicon cells were plated in the presence of a dilution series of test compound in the absence of G418. Typically, the assays were performed in a 96-well plate format for manual operation, or a 384-well plate in an automated assay. Replicon cells and compound were incubated for 24 to 72 hours. At the end of the assay, cells are washed free of media and compound and then lysed. Luciferase activity was measured using a conventional luciferase assay. EC50 determinations were calculated as a percent of a DMSO control by fitting the data to a four parameter fit function.
The activity table below provides representative data illustrating observed activity against genotype 1b.
In the case of `CC(C)(C)OC(=O)N[C@@H](C(=O)N1CCC[C@H]1C(=O)Nc1ccc(-c2[nH]c3ccc(NC(=O)[C@@H]4CCCN4C(=O)[C@H](NC(=O)OC(C)(C)C)c4ccccc4)cc3c2C(=O)NC2CC2)cc1)c1ccccc1` [Example 158, tert-butyl {(1R)-2-[(2S)-2-({4-[5-({[(2S)-1-{(2R)-2-[(tert-butoxycarbonyl)amino]-2-phenylacetyl}pyrrolidin-2-yl]carbonyl}amino)-3-(cyclopropylcarbamoyl)-1H-indol-2-yl]phenyl}carbamoyl)pyrrolidin-1-yl]-2-oxo-1-phenylethyl}carbamate], the pEC50 was 9.30.

In turn, `Cc1cccc(-c2c(-c3ccc(NC(=O)[C@@H]4CCCN4C(=O)[C@H](NC(=O)OC(C)(C)C)c4ccccc4)cc3)[nH]c3ccc(NC(=O)[C@@H]4CCCN4C(=O)[C@H](NC(=O)OC(C)(C)C)c4ccccc4)cc23)c1` [Example 169, tert-butyl {(1R)-2-[(2S)-2-({4-[5-({[(2S)-1-{(2R)-2-[(tert-butoxycarbonyl)amino]-2-phenylacetyl}pyrrolidin-2-yl]carbonyl}amino)-3-(3-methylphenyl)-1H-indol-2-yl]phenyl}carbamoyl)pyrrolidin-1-yl]-2-oxo-1-phenylethyl}carbamate] gave a pEC50 of 11.40.

Take `CC(=O)NCC#Cc1cc2cc(NC(=O)[C@@H]3CCCN3C(=O)[C@H](NC(=O)OC(C)(C)C)c3ccccc3)ccc2[nH]1` [Example 178, tert-butyl {(1R)-2-[(2S)-2-({2-[3-(acetylamino)prop-1-yn-1-yl]-1H-indol-5-yl}carbamoyl)pyrrolidin-1-yl]-2-oxo-1-phenylethyl}carbamate]: the pEC50 was 6.50. Same read-out and setting: as for `CC(C)(C)OC(=O)N[C@H](C(=O)N1CCC[C@H]1C(=O)Nc1ccc(-c2cc3cc(C#N)ccc3[nH]2)cc1)c1ccccc1` [Example 186, tert-butyl {(1S)-2-[(2S)-2-{[4-(5-cyano-1H-indol-2-yl)phenyl]carbamoyl}pyrrolidin-1-yl]-2-oxo-1-phenylethyl}carbamate], the figure is 10.82. Still for that read-out and setting: the same measure for `COC(=O)N[C@H](C(=O)N1CCC[C@H]1c1ncc(-c2ccc3c(c2)OCn2c-3cc3cc(-c4cnc([C@@H]5CCCN5C(=O)[C@@H](NC(=O)OC)C(C)C)[nH]4)ccc32)[nH]1)C(C)C` [Example 189a, methyl [(2S)-1-{(2S)-2-[5-(10-{2-[(2S)-1-{(2S)-2-[(methoxycarbonyl)amino]-3-methylbutanoyl}pyrrolidin-2-yl]-1H-imidazol-5-yl}indolo[1,2-c] [1,3]benzoxazin-3-yl)-1H-imidazol-2-yl]pyrrolidin-1-yl}-3-methyl-1-oxobutan-2-yl]carbamate]: 9.82; for `COC(=O)N[C@H](C(=O)N1CCC[C@H]1c1ncc(-c2ccc3c(c2)OCn2c-3c(F)c3cc(-c4cnc([C@@H]5CCCN5C(=O)[C@@H](NC(=O)OC)C(C)C)[nH]4)ccc32)[nH]1)C(C)C` [Example 189b]: 12.00. The same measure, in the same setting: as for `CCN(CC)[C@@H](C(=O)N1CCC[C@H]1C(=O)Nc1ccc2[nH]c(-c3ccc(-c4nnc([C@@H]5CCCN5C(=O)[C@@H](c5ccccc5)N(CC)CC)o4)cc3)cc2c1)c1ccccc1` [Example 191, 1-[(2R)-2-(diethylamino)-2-phenylacetyl]-N-{2-[4-(5-{(2S)-1-[(2R)-2-(diethylamino)-2-phenylacetyl]pyrrolidin-2-yl}-1,3,4-oxadiazol-2-yl)phenyl]-1H-indol-5-yl}-L-prolinamide], the figure is 10.70; as for `COC(=O)N[C@H](C(=O)N1CCC[C@H]1c1ncc(-c2ccc(-c3cc4cc(-c5cnc([C@@H]6CCCN6C(=O)[C@@H](NC(=O)OC)C(C)C)[nH]5)ccc4o3)cc2)[nH]1)C(C)C` [Example 192, Methyl {(2S)-1-[(2S)-2-{5-[4-(5-{2-[(2S)-1-{(2S)-2-[(methoxy-carbonyl)amino]-3-methylbutanoyl}pyrrolidin-2-yl]-1H-imidazol-5-yl}-1-benzofuran-2-yl)phenyl]-1H-imidazol-2-yl}pyrrolidin-1-yl]-3-methyl-1-oxobutan-2-yl}carbamate], 11.70; as for `CCN(CC)[C@@H](C(=O)N1CCC[C@H]1c1ncc(-c2ccc(-c3cc4cc(-c5cnc([C@@H]6CCCN6C(=O)[C@@H](c6ccccc6)N(CC)CC)[nH]5)ccc4o3)cc2)[nH]1)c1ccccc1` [Example 193, (2R)-2-(diethylamino)-1-[(2S)-2-(5-{4-[5-(2-{(2S)-1-[(2R)-2-(diethylamino)-2-phenylacetyl]pyrrolidin-2-yl}-1H-imidazol-5-yl)-1-benzofuran-2-yl]phenyl}-1H-imidazol-2-yl)pyrrolidin-1-yl]-2-phenylethanone], 10.30. Consider `COC(=O)N[C@@H](C(=O)N1CCC[C@H]1c1ncc(-c2ccc(-c3nc4cc(-c5cnc([C@@H]6CCCN6C(=O)[C@H](NC(=O)OC)c6ccccc6)[nH]5)ccc4o3)cc2)[nH]1)c1ccccc1` [Example 213, Methyl {(1R)-2-[(2S)-2-{5-[4-(5-{2-[(2S)-1-{(2R)-2-[(methoxycarbonyl)amino]-2-phenylacetyl}pyrrolidin-2-yl]-1H-imidazol-5-yl}-1,3-benzoxazol-2-yl)phenyl]-1H-imidazol-2-yl}pyrrolidin-1-yl]-2-oxo-1-phenylethyl}carbamate], for which the pEC50 is 11.05.

The same experiment, now with this note: genotype 1b replicon cells, 24 to 72 hours incubation, luciferase activity.
Compound `CN(C)[C@@H](C(=O)N1CCC[C@H]1C(=O)Nc1ccc2[nH]c(-c3nc4cc(NC(=O)[C@@H]5CCCN5C(=O)[C@@H](c5ccccc5)N(C)C)ccc4o3)cc2c1)c1ccccc1` [Example 190, (2S)-1-[(2R)-2-(dimethylamino)-2-phenylacetyl]-N-(2-{5-[({(2S)-1-[(2R)-2-(dimethylamino)-2-phenylacetyl]pyrrolidin-2-yl}carbonyl)amino]-1,3-benzoxazol-2-yl}-1H-indol-5-yl)pyrrolidine-2-carboxamide] gave a pEC50 of 10.17.
